Results as given in patent US20220378776A1, “DRUG COMBINATION OF QUINOLINE DERIVATIVE AND PD-1 MONOCLONAL ANTIBODY” (CHIA TAI TIANQING PHARMACEUTICAL GROUP CO., LTD, priority 2019, published 2022).

How the values were obtained:
[1] = phase 2 clinical trial; cited from earlier work
[2] = test system: advanced NSCLC; conditions: phase 3, Chinese patients; cited from earlier work
[3] = Expected steady state exposure of sintilimab 200 mg Q3W; assay type: in vivo
Protocol: In some embodiments of the present application, sintilimab is administered at a single dose of 200 mg by intravenous infusion, once every 3 weeks, and every 3 weeks is a treatment cycle.
The selection of the administration mode of sintilimab in this study was mainly based on the data of safety and exposure (concentration)-response (PD-1 receptor occupancy) relationship in the currently completed preliminary studies, combined with the preclinical in vitro/in vivo efficacy and related comparison data of similar drugs.

COc1cc2c(Oc3ccc4[nH]c(C)cc4c3F)ccnc2cc1OCC1(N)CC1 [anlotinib, 1-[[[4-(4-fluoro-2-methyl-1H-indol-5-yl)oxy-6-methoxyquinolin-7-yl]oxy]methyl]cyclopropylamine]
overall survival [1]: potential benefit in overall survival
progression-free survival [1]: improve progression-free survival
overall survival [2]: prolonged
progression-free survival [2]: prolonged
tolerability [2]: well tolerated

sintilimab: anti-PD-1 human IgG4 monoclonal antibody; heavy chain SEQ ID NO: 10, light chain SEQ ID NO: 9; antibody D of CN108473977A
time of continuous administration to reach steady state ([3]; 200 mg Q3W (4 times)): 84 days
mean steady state trough concentration ([3]; 200 mg Q3W continuously for 84 days (4 times)): about 26 μg/mL
